Data: the supplement of paper PMC4954754
Values joined by “and” are separate entries in the source; they are usually repeats but may differ in a detail not shown here. Equal entries are not always repeated. ± gives the uncertainty stated by the source.

tested on: HEK293T-Rex ERSE-FLuc; assay: maximal ERSE-FLuc activation from dose-response fit, relative to thapsigargin (% of thapsigargin); higher = stronger activation; conditions: 18 h
Description: (§1)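 Dose-response of hit compounds in HEK293T-Rex cells stably expressing ERSE-FLuc or XBP1-RLuc reporters, 18 hr treatment, 1536-well; luminescence normalised to 500 nM thapsigargin (100%) and DMSO (0%), fitted to give EC50 (M) and maximal activation; '>' marks EC50 above the top tested dose (~17 µM).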

`CCOc1cccc(C(=O)Nc2ccc(-c3nc4ccc(C(=O)c5ccccc5)cc4[nH]3)cc2)c1` and `Cc1nc(-c2ccc(C(=O)Nc3ccc(O)cc3)cc2)cs1` are within error of each other in “maximal ERSE-FLuc activation” value: 25.2 ± 5 for the first, 27.7 ± 1.8 for the second.

First: CN1C(=O)/C(=C\c2ccc(O)c(O)c2)SC1=S
Second: O=C1NC(=Nc2ccccc2)S/C1=C/c1ccc(O)c(O)c1
The “maximal ERSE-FLuc activation” value of the first is lower: 28 ± 15 for the first, 83.8 ± 12 for the second.

`N#Cc1c(NC(=O)/C=C/c2ccco2)sc2c1CCCC2` and `O=C(/C=C/c1ccccc1)Nc1ccc(Cl)cn1` are within error of each other in “maximal ERSE-FLuc activation” value: 22.8 ± 6.6 for the first, 22.1 ± 7 for the second.

First: COc1cccc(C(=O)/C=C/Nc2cc(C)ccc2O)c1
Second: Cc1ccc(O)c(NC(=O)CSc2ccccc2)c1
The “maximal ERSE-FLuc activation” value of the first is higher: 229 ± 0.77 for the first, 83.1 ± 25 for the second.

First: Oc1ccc(/C=N/Nc2cccc3cccnc23)cc1O
Second: N#C/C(=C/c1ccc(O)c(O)c1)c1nc2ccccc2s1
The “maximal ERSE-FLuc activation” value of the first is lower: 30.7 ± 5.1 for the first, 38.1 ± 2.2 for the second.

First: CCOc1cc(/C=C2/NC(=O)N(Cc3ccc(F)cc3)C2=O)ccc1O
Second: O=C1N/C(=C/c2ccc(O)cc2)C(=O)N1c1ccccc1
The “maximal ERSE-FLuc activation” value of the first is lower: 36.3 ± 4.1 for the first, 110 ± 11 for the second.

Compared with `CC(C)NC(=O)c1cc(-c2ccc(O)cc2)on1`, `CCCCNC(=O)c1cc(-c2ccc(F)cc2)on1` is higher in “maximal ERSE-FLuc activation” value: 1.46 ± 1 for the first, 68.7 ± 8.5 for the second.

`Cc1cc(C)nc(Nc2nc(-c3ccc(O)c(O)c3)cs2)n1` and `Cc1cc(C)c(OCC(=O)N/N=C/c2ccc(O)c(O)c2)c(Br)c1` are within error of each other in “maximal ERSE-FLuc activation” value: 39.7 ± 7.3 for the first, 49.6 ± 5.9 for the second.

`Cc1ccc2nc(/C(C#N)=C/c3ccc(O)cc3)[nH]c2c1` and `CN(C)c1ccc(/C=C(/C#N)C(=O)Nc2ccc(O)cc2)cc1` are within error of each other in “maximal ERSE-FLuc activation” value: 35.3 ± 5.6 for the first, 29.9 ± 4.7 for the second.

Compared with `O=C(/C=C/c1ccccc1)Nc1ccc(Br)cn1`, `Cc1ccc2nc(NC(=O)c3cccc4ccccc34)sc2c1` is higher in “maximal ERSE-FLuc activation” value: 26.2 ± 3.8 for the first, 38.8 ± 5.3 for the second.

Going from `CNc1ccc2oc(C[C@H]3O[C@@]4(CC[C@H]3C)O[C@H]([C@H](C)C(=O)c3ccc[nH]3)[C@H](C)C[C@H]4C)nc2c1C(=O)O` to `COc1ccc(-c2csc(N(CC3CCCO3)C(=O)CCl)n2)cc1` (configuration not stated), the “maximal ERSE-FLuc activation” value falls from 56.9 ± 16 to 17.5 ± 3.4.

First: Fc1ccc(-c2nnc3ccc(N4CCN(c5ccccn5)CC4)nn23)cc1
Second: Cc1ccc(O)c(NC(=O)c2cc(-c3ccc(F)cc3)on2)c1
The “maximal ERSE-FLuc activation” value of the first is lower: 5.1 ± 4.1 for the first, 31 ± 7.9 for the second.

Going from `OCCNc1nc(Nc2ccc(Cl)cc2)nc2ccccc12` to `CC(=Nc1ccc(O)cc1)c1sc2ccccc2c1O`, the “maximal ERSE-FLuc activation” value falls from 155 ± 12 to 19.8 ± 4.8.

First: Cc1ccc(O)c(NC(=O)c2cc(-c3cccnc3)on2)c1
Second: COc1ccc2c(Cl)c(C(=O)Nc3ccccc3C(N)=O)sc2c1
The “maximal ERSE-FLuc activation” value of the first is higher: 94.4 ± 10 for the first, 21.3 ± 1.3 for the second.

`COc1ccc(C2C=C3Oc4ccccc4N=C3NN2)cc1` (configuration not stated) and `O=C(N/N=C/c1cccc2ccccc12)c1ccc2c(c1)OCO2` are within error of each other in “maximal ERSE-FLuc activation” value: 27 ± 2.8 for the first, 25.3 ± 5.6 for the second.

Compared with `Nc1ccccc1NC(=O)c1ccc(C(F)(F)F)cc1`, `CCCCNC(=O)c1cc(-c2cccs2)on1` is higher in “maximal ERSE-FLuc activation” value: 73.1 ± 8.1 for the first, 107 ± 7.8 for the second.

Going from `COC(=O)c1c(NC(=O)CCl)sc(C(=O)Nc2cccc([N+](=O)[O-])c2)c1C` to `COc1ccc(Nc2nccn3c(-c4ccsc4)cnc23)cn1`, the “maximal ERSE-FLuc activation” value falls from 32.9 ± 4.5 to 23.1 ± 0.89.

`CCc1cc2c(=O)c(-c3ccc4c(c3)OCCO4)coc2cc1OC` was tested, and the “maximal ERSE-FLuc activation” value was 31.2 ± 5.7.

In the case of `O=c1cc(-c2ccc(O)c(O)c2)oc2cc(O)cc(O)c12`, the “maximal ERSE-FLuc activation” value is reported as 80.9 and 67.8.

tested on: HEK293T-Rex XBP1-RLuc; assay: maximal XBP1-RLuc activation from dose-response fit, relative to thapsigargin (% of thapsigargin); higher = stronger activation; conditions: 18 h
Description: as §1

`CCOc1cccc(C(=O)Nc2ccc(-c3nc4ccc(C(=O)c5ccccc5)cc4[nH]3)cc2)c1` and `Cc1nc(-c2ccc(C(=O)Nc3ccc(O)cc3)cc2)cs1` are within error of each other in “maximal XBP1-RLuc activation” value: 66.4 ± 12 for the first, 65.5 ± 3.6 for the second.

`CN1C(=O)/C(=C\c2ccc(O)c(O)c2)SC1=S` and `O=C1NC(=Nc2ccccc2)S/C1=C/c1ccc(O)c(O)c1` are within error of each other in “maximal XBP1-RLuc activation” value: 40.5 ± 3.6 for the first, 38.5 ± 6.1 for the second.

`N#Cc1c(NC(=O)/C=C/c2ccco2)sc2c1CCCC2` and `O=C(/C=C/c1ccccc1)Nc1ccc(Cl)cn1` are within error of each other in “maximal XBP1-RLuc activation” value: 5.59 ± 3 for the first, 2.19 ± 0.65 for the second.

Going from `COc1cccc(C(=O)/C=C/Nc2cc(C)ccc2O)c1` to `Cc1ccc(O)c(NC(=O)CSc2ccccc2)c1`, the “maximal XBP1-RLuc activation” value falls from 72.5 ± 3.2 to 21.2 ± 3.5.

Compared with `Oc1ccc(/C=N/Nc2cccc3cccnc23)cc1O`, `N#C/C(=C/c1ccc(O)c(O)c1)c1nc2ccccc2s1` is lower in “maximal XBP1-RLuc activation” value: 35 ± 3.2 for the first, 27.5 ± 2.7 for the second.

Compared with `CCOc1cc(/C=C2/NC(=O)N(Cc3ccc(F)cc3)C2=O)ccc1O`, `O=C1N/C(=C/c2ccc(O)cc2)C(=O)N1c1ccccc1` is higher in “maximal XBP1-RLuc activation” value: 56.8 ± 0.68 for the first, 76 ± 3.7 for the second.

First: CC(C)NC(=O)c1cc(-c2ccc(O)cc2)on1
Second: CCCCNC(=O)c1cc(-c2ccc(F)cc2)on1
The “maximal XBP1-RLuc activation” value of the first is lower: 0.798 ± 0.58 for the first, 9.22 ± 4.7 for the second.

First: Cc1cc(C)nc(Nc2nc(-c3ccc(O)c(O)c3)cs2)n1
Second: Cc1cc(C)c(OCC(=O)N/N=C/c2ccc(O)c(O)c2)c(Br)c1
The “maximal XBP1-RLuc activation” value of the first is higher: 59.1 ± 1.4 for the first, 41.1 ± 11 for the second.

First: Cc1ccc2nc(/C(C#N)=C/c3ccc(O)cc3)[nH]c2c1
Second: CN(C)c1ccc(/C=C(/C#N)C(=O)Nc2ccc(O)cc2)cc1
The “maximal XBP1-RLuc activation” value of the first is lower: 21.3 ± 3.4 for the first, 31 ± 2.4 for the second.

Compared with `O=C(/C=C/c1ccccc1)Nc1ccc(Br)cn1`, `Cc1ccc2nc(NC(=O)c3cccc4ccccc34)sc2c1` is higher in “maximal XBP1-RLuc activation” value: 4.36 ± 3.2 for the first, 11.2 ± 1.2 for the second.

First: CNc1ccc2oc(C[C@H]3O[C@@]4(CC[C@H]3C)O[C@H]([C@H](C)C(=O)c3ccc[nH]3)[C@H](C)C[C@H]4C)nc2c1C(=O)O
Second: COc1ccc(-c2csc(N(CC3CCCO3)C(=O)CCl)n2)cc1 (configuration not stated)
The “maximal XBP1-RLuc activation” value of the first is higher: 91.4 ± 5.9 for the first, 10.3 ± 0.8 for the second.

First: Fc1ccc(-c2nnc3ccc(N4CCN(c5ccccn5)CC4)nn23)cc1
Second: Cc1ccc(O)c(NC(=O)c2cc(-c3ccc(F)cc3)on2)c1
The “maximal XBP1-RLuc activation” value of the first is lower: 7.7 ± 2.6 for the first, 18.8 ± 3.2 for the second.

Going from `OCCNc1nc(Nc2ccc(Cl)cc2)nc2ccccc12` to `CC(=Nc1ccc(O)cc1)c1sc2ccccc2c1O`, the “maximal XBP1-RLuc activation” value falls from 87.4 ± 1.1 to 31.2 ± 4.8.

Compared with `Cc1ccc(O)c(NC(=O)c2cc(-c3cccnc3)on2)c1`, `COc1ccc2c(Cl)c(C(=O)Nc3ccccc3C(N)=O)sc2c1` is lower in “maximal XBP1-RLuc activation” value: 27.9 ± 4.9 for the first, 6.81 ± 1.3 for the second.

First: COc1ccc(C2C=C3Oc4ccccc4N=C3NN2)cc1 (configuration not stated)
Second: O=C(N/N=C/c1cccc2ccccc12)c1ccc2c(c1)OCO2
The “maximal XBP1-RLuc activation” value of the first is higher: 14.1 ± 2.1 for the first, 0.725 ± 0.6 for the second.

First: Nc1ccccc1NC(=O)c1ccc(C(F)(F)F)cc1
Second: CCCCNC(=O)c1cc(-c2cccs2)on1
The “maximal XBP1-RLuc activation” value of the first is higher: 37.7 ± 3.5 for the first, 10.3 ± 2.2 for the second.

Compared with `COC(=O)c1c(NC(=O)CCl)sc(C(=O)Nc2cccc([N+](=O)[O-])c2)c1C`, `COc1ccc(Nc2nccn3c(-c4ccsc4)cnc23)cn1` is lower in “maximal XBP1-RLuc activation” value: 29.6 ± 2.9 for the first, 8.52 ± 2.1 for the second.

`CCc1cc2c(=O)c(-c3ccc4c(c3)OCCO4)coc2cc1OC` was tested, and the “maximal XBP1-RLuc activation” value was 14.1 ± 1.5.

With `O=c1cc(-c2ccc(O)c(O)c2)oc2cc(O)cc(O)c12` the “maximal XBP1-RLuc activation” value was 36.6 and 29.
